Measured values published in ChEMBL document CHEMBL1201862, “PubChem BioAssay data set” (2004).
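In this assay, cells in 96-well plates receive the compound at five concentrations for 48 hours. Endpoints are linearly interpolated between the surrounding concentrations. GI50: concentration for 50% inhibition of growth.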 Activity calls are given as the source filed them. Rule as the data show it: active = GI50 up to about 1.1 µM and inactive = higher. Where a SMILES comes first, the peptide text is derived from it. [ ]: non-standard residue; d: D form. Ac5c = NC1(C(=O)O)CCCC1

Experiments:
Experiment in all cases: NCI-60 cell line screen, 48 h
RPMI-8226 = system: RPMI-8226
NCI-H460 = system: NCI-H460
NCI-H522 = system: NCI-H522
SF-268 = system: SF-268
UACC-257 = system: UACC-257
SK-MEL-5 = system: SK-MEL-5
HCT-15 = system: HCT-15
MDA-MB-231 = system: MDA-MB-231
HL-60 = system: HL-60
MCF7 = system: MCF7
CCRF-CEM = system: CCRF-CEM
ACHN = system: ACHN
A549 = system: A549
SF-295 = system: SF-295
MDA-N = system: MDA-N
T47D = system: T47D
UO-31 = system: UO-31
IGROV-1 = system: IGROV-1
SR = system: SR
HOP-92 = system: HOP-92

SMILES	GI50 (RPMI-8226)	GI50 (NCI-H460)	GI50 (NCI-H522)	GI50 (SF-268)	GI50 (UACC-257)	GI50 (SK-MEL-5)	GI50 (HCT-15) [µM]	GI50 (MDA-MB-231)	GI50 (HL-60)	GI50 (MCF7)	GI50 (CCRF-CEM)	GI50 (ACHN)	GI50 (A549)	GI50 (SF-295)	GI50 (MDA-N)	GI50 (T47D)	GI50 (UO-31)	GI50 (IGROV-1)	GI50 (SR)	GI50 (HOP-92)
COc1ccccc1C1SCC(=O)N1c1ccc(-c2ccc(-n3c(-c4ccccc4)nc4ccccc4c3=O)cc2)cc1 (configuration not stated)	> 100 µM (inactive)	> 100 µM (inactive)	> 100 µM (inactive)	> 100 µM (inactive)	> 100 µM (inactive)	> 100 µM (inactive)	> 100	> 100 µM (inactive)	> 100 µM (inactive)	> 100 µM (inactive)	> 100 µM (inactive)	> 100 µM (inactive)	> 100 µM (inactive)	> 100 µM (inactive)	> 100 µM (inactive)	91 µM (inactive)	29.9 µM (inactive)	> 100 µM (inactive)	–	–
O=CN1CCN(CC(O)CN2CCCCC2)CC1 (configuration not stated)	> 100 µM (inactive)	–	> 100 µM (inactive)	> 100 µM (inactive)	> 100 µM (inactive)	> 100 µM (inactive)	> 100	> 100 µM (inactive)	> 100 µM (inactive)	> 100 µM (inactive)	> 100 µM (inactive)	> 100 µM (inactive)	> 100 µM (inactive)	> 100 µM (inactive)	> 100 µM (inactive)	> 100 µM (inactive)	> 100 µM (inactive)	> 100 µM (inactive)	> 100 µM (inactive)	–
COc1ccc(/N=C/N(C)C)c(C)c1	> 100 µM (inactive)	–	2.43 µM (inactive)	19 µM (inactive)	2.42 µM (inactive)	3.01 µM (inactive)	35.3	5.83 µM (inactive)	0.13 µM (active)	8.26 µM (inactive)	3.28 µM (inactive)	18.7 µM (inactive)	7.23 µM (inactive)	11 µM (inactive)	6.18 µM (inactive)	9.55 µM (inactive)	26.1 µM (inactive)	9.48 µM (inactive)	–	10.5 µM (inactive)
CCOC(=O)C(CCSC)(CCSC)C(=O)OCC	> 100 µM (inactive)	> 100 µM (inactive)	> 100 µM (inactive)	> 100 µM (inactive)	> 100 µM (inactive)	> 100 µM (inactive)	> 100	> 100 µM (inactive)	–	> 100 µM (inactive)	> 100 µM (inactive)	> 100 µM (inactive)	> 100 µM (inactive)	> 100 µM (inactive)	> 100 µM (inactive)	> 100 µM (inactive)	> 100 µM (inactive)	> 100 µM (inactive)	–	–
COc1ccc(C(CC(=O)c2ccccc2)C(=O)c2ccc3c(c2)OCO3)cc1 (configuration not stated)	> 100 µM (inactive)	> 100 µM (inactive)	–	> 100 µM (inactive)	> 100 µM (inactive)	> 100 µM (inactive)	> 100	> 100 µM (inactive)	> 100 µM (inactive)	> 100 µM (inactive)	> 100 µM (inactive)	> 100 µM (inactive)	> 100 µM (inactive)	> 100 µM (inactive)	> 100 µM (inactive)	77.3 µM (inactive)	> 100 µM (inactive)	> 100 µM (inactive)	> 100 µM (inactive)	–
Cc1n[nH]c(=O)n1N1C(=O)c2ccccc2C1=O	–	> 100 µM (inactive)	–	–	> 100 µM (inactive)	> 100 µM (inactive)	> 100	> 100 µM (inactive)	–	> 100 µM (inactive)	> 100 µM (inactive)	> 100 µM (inactive)	> 100 µM (inactive)	> 100 µM (inactive)	> 100 µM (inactive)	> 100 µM (inactive)	> 100 µM (inactive)	> 100 µM (inactive)	> 100 µM (inactive)	> 100 µM (inactive)
O=[N+]([O-])c1ccc2c(c1)c(OCc1ccccc1)nn2Cc1ccccc1	> 100 µM (inactive)	> 100 µM (inactive)	23 µM (inactive)	> 100 µM (inactive)	> 100 µM (inactive)	58.2 µM (inactive)	53	> 100 µM (inactive)	> 100 µM (inactive)	> 100 µM (inactive)	40.1 µM (inactive)	43.8 µM (inactive)	64.1 µM (inactive)	51.2 µM (inactive)	> 100 µM (inactive)	> 100 µM (inactive)	> 100 µM (inactive)	> 100 µM (inactive)	–	–
CC(C)(C)C1CCC2c3c([nH]c4ccccc34)C3C(=O)N(c4cccc([N+](=O)[O-])c4)C(=O)C3C2C1 (configuration not stated)	–	13.6 µM (inactive)	14.6 µM (inactive)	21 µM (inactive)	22.5 µM (inactive)	–	37.1	30.5 µM (inactive)	–	32.5 µM (inactive)	> 100 µM (inactive)	36.2 µM (inactive)	39.5 µM (inactive)	53.7 µM (inactive)	18.2 µM (inactive)	28.8 µM (inactive)	35.2 µM (inactive)	19.8 µM (inactive)	18.2 µM (inactive)	61.5 µM (inactive)
Clc1ccc(/C=C/c2nc(Cl)c(-c3ccc(Cl)cc3)c(Cl)n2)cc1	23.8 µM (inactive)	61 µM (inactive)	31.5 µM (inactive)	> 100 µM (inactive)	39.3 µM (inactive)	38.8 µM (inactive)	> 100	67 µM (inactive)	14.3 µM (inactive)	45.5 µM (inactive)	20.4 µM (inactive)	35.2 µM (inactive)	37.9 µM (inactive)	52.1 µM (inactive)	59.4 µM (inactive)	38.3 µM (inactive)	13.6 µM (inactive)	60 µM (inactive)	–	> 100 µM (inactive)
CSc1c(C#N)c(=O)n(N)c2c1c(C)nn2-c1ccccc1	21.9 µM (inactive)	> 100 µM (inactive)	22.9 µM (inactive)	42 µM (inactive)	22 µM (inactive)	15.3 µM (inactive)	22.1	17.6 µM (inactive)	26.2 µM (inactive)	16.6 µM (inactive)	19.4 µM (inactive)	–	21.9 µM (inactive)	–	35.6 µM (inactive)	25.8 µM (inactive)	18.5 µM (inactive)	–	23.6 µM (inactive)	–
COC(=O)c1cc2c(cc1CC1Cc3cc4c(cc3C1=O)CCC4)CCC2 (configuration not stated)	25 µM (inactive)	40 µM (inactive)	34.1 µM (inactive)	> 100 µM (inactive)	39.1 µM (inactive)	17.6 µM (inactive)	36.3	53.8 µM (inactive)	> 100 µM (inactive)	34 µM (inactive)	21.5 µM (inactive)	> 100 µM (inactive)	40.3 µM (inactive)	30.7 µM (inactive)	18.2 µM (inactive)	24.9 µM (inactive)	> 100 µM (inactive)	97.5 µM (inactive)	45.4 µM (inactive)	–
CCOC(=O)CNC1=Nc2ccccc2C(=O)N2CSCC12 (configuration not stated)	> 100 µM (inactive)	> 100 µM (inactive)	> 100 µM (inactive)	> 100 µM (inactive)	> 100 µM (inactive)	> 100 µM (inactive)	> 100	> 100 µM (inactive)	–	> 100 µM (inactive)	> 100 µM (inactive)	> 100 µM (inactive)	> 100 µM (inactive)	> 100 µM (inactive)	> 100 µM (inactive)	> 100 µM (inactive)	> 100 µM (inactive)	> 100 µM (inactive)	> 100 µM (inactive)	–
CN(c1ccc(Cl)cc1)S(=O)(=O)c1ccccc1	42.3 µM (inactive)	43.1 µM (inactive)	76.7 µM (inactive)	49 µM (inactive)	> 100 µM (inactive)	18.7 µM (inactive)	52.2	35.4 µM (inactive)	15 µM (inactive)	52.4 µM (inactive)	46.2 µM (inactive)	> 100 µM (inactive)	72.4 µM (inactive)	65.3 µM (inactive)	64.9 µM (inactive)	34.2 µM (inactive)	42 µM (inactive)	> 100 µM (inactive)	32.1 µM (inactive)	–
Cc1ccccc1N/N=C1\C(=O)Nc2ccccc21	> 100 µM (inactive)	> 100 µM (inactive)	96.8 µM (inactive)	> 100 µM (inactive)	> 100 µM (inactive)	> 100 µM (inactive)	> 100	> 100 µM (inactive)	> 100 µM (inactive)	> 100 µM (inactive)	> 100 µM (inactive)	> 100 µM (inactive)	> 100 µM (inactive)	> 100 µM (inactive)	> 100 µM (inactive)	> 100 µM (inactive)	> 100 µM (inactive)	0.0132 µM (active)	> 100 µM (inactive)	–
O/N=N\c1nc(-c2ccccn2)nc2ccccc12	–	2.49 µM (inactive)	1.89 µM (inactive)	11.7 µM (inactive)	7.69 µM (inactive)	2.77 µM (inactive)	1.53	13.3 µM (inactive)	0.984 µM (active)	4.76 µM (inactive)	0.441 µM (active)	2.14 µM (inactive)	45.3 µM (inactive)	22 µM (inactive)	19.6 µM (inactive)	2.83 µM (inactive)	18.7 µM (inactive)	17 µM (inactive)	2.38 µM (inactive)	–
COC(=O)C1(NC(=O)C(C)NC(=O)C(CCCCN)NC(=O)C(CC(C)C)NC(C)=O)CCCC1 (configuration not stated) (Ac-LKA[Ac5c]-OMe; configuration not given here)	> 100 µM (inactive)	> 100 µM (inactive)	> 100 µM (inactive)	> 100 µM (inactive)	> 100 µM (inactive)	> 100 µM (inactive)	> 100	> 100 µM (inactive)	> 100 µM (inactive)	> 100 µM (inactive)	> 100 µM (inactive)	> 100 µM (inactive)	> 100 µM (inactive)	> 100 µM (inactive)	> 100 µM (inactive)	> 100 µM (inactive)	> 100 µM (inactive)	> 100 µM (inactive)	> 100 µM (inactive)	–
